Patent publication EP0598011B1, “ECDYSTEROID DEPENDENT REGULATION OF GENES IN MAMMALIAN CELLS” (GENENTECH, INC., priority 1991, dated 1993)

Molecular target: T1, GGEc (Drosophila melanogaster, UniProt P34021)
T1 construct: expressed in transfected cells; host or cells: 293 cells
T1 sequence (P34021 329-878): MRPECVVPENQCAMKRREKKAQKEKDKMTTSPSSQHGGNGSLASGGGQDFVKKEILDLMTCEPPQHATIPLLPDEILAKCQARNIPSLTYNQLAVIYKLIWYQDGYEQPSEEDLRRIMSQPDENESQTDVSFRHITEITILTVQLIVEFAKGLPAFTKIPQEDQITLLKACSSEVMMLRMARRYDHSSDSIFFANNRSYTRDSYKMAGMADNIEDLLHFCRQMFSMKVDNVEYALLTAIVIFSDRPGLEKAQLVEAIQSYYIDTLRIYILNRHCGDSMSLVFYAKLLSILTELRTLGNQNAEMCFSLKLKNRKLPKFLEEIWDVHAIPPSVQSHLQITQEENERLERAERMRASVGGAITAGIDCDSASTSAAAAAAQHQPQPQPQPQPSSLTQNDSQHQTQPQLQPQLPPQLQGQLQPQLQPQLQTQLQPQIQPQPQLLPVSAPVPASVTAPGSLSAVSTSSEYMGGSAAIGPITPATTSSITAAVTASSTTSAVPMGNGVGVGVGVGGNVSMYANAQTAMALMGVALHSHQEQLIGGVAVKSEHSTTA
Assay: Induction of GRE reporter G4M-77CO by chimeric receptor GGEc in 293 cells
Assay type: cell-based
Details: for fold induction: 293 cells, reporter G4M-77CO, normalized to hGH, SD in parentheses
Text: I choose to determine if the ligand-binding domain of DHR23a could be used to regulate the DNA-binding and transactivation domains of the mammalian glucocorticoid receptor for the following reasons. First, in contrast to DHR23α, high affinity DNA-binding sites for the GR have been identified (M. Beato, Cell 56, 335 [1989]) and reporter genes containing these sites are very strongly regulated. Thus, the sensitivity of our assays could be increased. Secondly, these chimeric receptors could be utilized to selectively regulate endogenous genes in mammalian cells in response to ecdysteroids. I constructed a chimeric gene, GGEc, in which the sequences encoding the ligand-binding domain of the GR were replaced with that of DHR23α (Fig. 4A). […] However, expression of the GRE-containing reporter gene was induced more than 700 fold by GGEc in muristerone-treated cells.

CC(C)CCC(O)[C@](C)(O)[C@H]1CC[C@@]2(O)C3=CC(=O)C4(O)CC(O)C(O)C[C@]4(C)[C@H]3C(O)C[C@]12C (stereo partly drawn) [muristerone A, 2,3,5,11,14,20,22-Heptahydroxy-7-cholesten-6-one]
fold induction: more than 700 fold | fold induction (listed as M): 798 (57) fold | relative efficacies of ecdysteroids as agonists for the chimeric receptor (GRE reporter G4M-77CO): strong
